From patent US20160362744A1, “Biomarkers of Mineralocorticoid Receptor Activation” (INSERM (Institut National de la Sante et de la Recherche …, priority 2008, published 2016)
“Also recorded” adds a separate entry of the source. One block for each compound: values may come before it.

Legend:
rat MR [1] = biological target: T1, rat MR (Rattus norvegicus, UniProt P22199); test: Expression of NGAL mRNA (Q-PCR) in rat cardiomyocyte H9C2 cells stably expressing rat MR; format: cell-based; details: for Lipocalin2/NGAL expression, time-course: 10^−8M aldosterone
T1 construct: expressed in transfected cells; host or cells: rat H9C2 cardiomyocyte cells (H9-C2/MR)
T1 sequence (P22199 1-981): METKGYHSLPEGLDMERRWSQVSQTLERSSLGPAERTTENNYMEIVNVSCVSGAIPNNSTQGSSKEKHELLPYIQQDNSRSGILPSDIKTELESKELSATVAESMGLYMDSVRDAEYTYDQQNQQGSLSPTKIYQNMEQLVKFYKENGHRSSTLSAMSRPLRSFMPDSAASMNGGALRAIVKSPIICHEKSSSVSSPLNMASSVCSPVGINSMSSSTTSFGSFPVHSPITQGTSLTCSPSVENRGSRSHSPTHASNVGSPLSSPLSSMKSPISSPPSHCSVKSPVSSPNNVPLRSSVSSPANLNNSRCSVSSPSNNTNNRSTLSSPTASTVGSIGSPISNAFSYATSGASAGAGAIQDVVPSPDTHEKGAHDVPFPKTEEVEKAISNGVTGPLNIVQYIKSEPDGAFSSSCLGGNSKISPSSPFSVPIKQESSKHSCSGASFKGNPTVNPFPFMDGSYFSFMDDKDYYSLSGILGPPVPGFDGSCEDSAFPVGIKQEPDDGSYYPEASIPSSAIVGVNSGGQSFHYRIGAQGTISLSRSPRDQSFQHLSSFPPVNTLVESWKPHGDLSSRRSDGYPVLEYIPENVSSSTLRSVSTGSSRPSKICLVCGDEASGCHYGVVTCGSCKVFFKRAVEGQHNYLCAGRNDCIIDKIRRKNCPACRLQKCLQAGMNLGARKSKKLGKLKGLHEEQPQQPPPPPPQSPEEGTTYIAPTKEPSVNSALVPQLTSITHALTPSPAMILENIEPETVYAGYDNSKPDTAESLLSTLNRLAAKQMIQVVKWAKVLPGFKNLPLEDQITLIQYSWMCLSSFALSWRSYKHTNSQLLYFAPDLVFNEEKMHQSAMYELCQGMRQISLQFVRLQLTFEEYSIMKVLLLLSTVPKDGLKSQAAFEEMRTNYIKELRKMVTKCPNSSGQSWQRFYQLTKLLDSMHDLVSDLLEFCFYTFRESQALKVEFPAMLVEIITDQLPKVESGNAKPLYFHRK
Procedure: Expression of NGAL in a Cellular Model of Rat Cardiomyocyte (H9C2 Cells) Stably Overexpressing with Rat MR
(§1) Quantitative NGAL mRNA expression was analyzed by quantitative PCR (Q-PCR, Light Cycler, Biorad) using forward 5′-[…]-3′ (SEQ ID NO:3) and reverse 5′-[…]-3′ (SEQ ID NO:4) primers on 25 μl of RT-PCR (using the qPCR Core kit for Sybr Green I from Eurogentec) prepared using 2 μg DNA-free total RNA extracted from rat H9-C2/MR cells treated with various concentrations of aldosterone or 10^−8M corticosterone or 10^−6 M MR antagonist RU 28318 or GR antagonist RU 486, alone or in combination.

rat MR [2] = biological target: T1, rat MR; test: Expression of Serpina3 mRNA (Q-PCR) in rat cardiomyocyte H9C2 cells stably overexpressing rat MR; format: cell-based; details: for serpina3 induction, time course: Aldosterone 10 nM
Procedure: Expression of Serpina3 in a Cellular Model of Rat Cardiomyocyte (H9C2 Cells) Stably Overexpressing with Rat MR
as §1, with “Serpina3” for “NGAL”, “NO:7)” for “NO:3)”, “NO:8)” for “NO:4)”, “28318,” for “28318 or GR antagonist RU 486,”

MR [3] = biological target: T2, MR (Mus musculus, UniProt Q8VII8); test: NGAL expression in uninephrectomized mice with aldosterone infusion and 1% salt (aldo/salt model); format: in vivo; details: 3 weeks
T2 construct: from tissue; host or cells: living mice (heart, plasma)
T2 sequence (Q8VII8 1-978): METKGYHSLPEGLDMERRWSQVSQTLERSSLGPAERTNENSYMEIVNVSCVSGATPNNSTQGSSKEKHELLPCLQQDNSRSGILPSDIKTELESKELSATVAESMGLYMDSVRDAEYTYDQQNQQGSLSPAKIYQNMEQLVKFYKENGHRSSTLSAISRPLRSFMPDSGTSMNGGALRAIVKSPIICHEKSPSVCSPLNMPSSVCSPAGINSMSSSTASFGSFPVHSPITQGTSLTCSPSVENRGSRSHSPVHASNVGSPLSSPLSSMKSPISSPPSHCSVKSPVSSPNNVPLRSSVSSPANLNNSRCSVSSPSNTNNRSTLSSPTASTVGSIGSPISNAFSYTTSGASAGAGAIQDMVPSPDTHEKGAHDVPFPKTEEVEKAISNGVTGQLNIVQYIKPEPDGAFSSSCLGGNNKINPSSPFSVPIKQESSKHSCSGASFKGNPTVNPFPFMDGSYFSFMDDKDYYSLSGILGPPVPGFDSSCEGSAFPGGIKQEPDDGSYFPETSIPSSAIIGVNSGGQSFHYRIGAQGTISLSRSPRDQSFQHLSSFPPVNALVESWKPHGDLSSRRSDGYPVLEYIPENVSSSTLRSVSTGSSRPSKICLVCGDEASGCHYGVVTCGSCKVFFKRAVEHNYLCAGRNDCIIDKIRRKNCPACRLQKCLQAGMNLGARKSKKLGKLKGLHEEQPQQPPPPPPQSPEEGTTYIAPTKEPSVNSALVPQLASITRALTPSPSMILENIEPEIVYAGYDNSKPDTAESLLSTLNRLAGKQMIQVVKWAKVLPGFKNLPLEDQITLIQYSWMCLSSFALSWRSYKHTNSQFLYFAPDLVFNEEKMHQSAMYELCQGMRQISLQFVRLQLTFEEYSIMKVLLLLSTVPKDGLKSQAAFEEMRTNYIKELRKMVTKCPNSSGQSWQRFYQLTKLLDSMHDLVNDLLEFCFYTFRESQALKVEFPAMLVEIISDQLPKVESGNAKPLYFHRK
Procedure: Quantitative NGAL mRNA expression was analyzed by quantitative PCR (Q-PCR, Light Cycler, Biorad) using forward 5′-[…]-3′ (SEQ ID NO:1) and Reverse 5′-[…]-3′ (SEQ ID NO:2) primers on 25 μl of RT-PCR (using the qPCR Core kit for Sybr Green I from Eurogentec) prepared using 2 μg DNA-free total RNA extracted from the heart of one, two and three mo-old MR transgenic mice and compared to matched littermates, as well as two mo-old GR transgenic mice (and respective control littermates). Protein expression of NGAL was analyzed in cardiac protein extracts from two mo-old MR mice using a specific NGAL antibody (AF1857, R&D Systems). […]
Quantitative NGAL mRNA expression was also analyzed by Q-PCR in the heart of mice with uninephrectomy and treated with aldosterone infusion (60 μg/kg/j, 0.25 μl/h ALZET minipumps) and 1% salt in the drinking water for 3 weeks (as compared to uninephrectomized-only control mice), and in thoracic aorta from 9 months-old mice with conditional overexpression of the human MR in the endothelium only obtained after appropriate breeding of the MR transgenic mice described above with an endothelial-specific transactivator mice (provided by L. E. Benjamine, Harvard, USA) (Sun et al., 2005) that allowed conditional expression of hMR in the endothelium only. […]

MR [4] = biological target: T2, MR; test: Plasma NGAL (ELISA) in db/db mouse model of type II diabetes treated with MR antagonist; format: in vivo, mice

- Lipocalin2/NGAL expression (rat MR [1]; 10^−8M aldosterone for 24 h): increased
- Lipocalin2/NGAL expression, time-course (rat MR [1]; after 24 h): induced
- Lipocalin2/NGAL expression, time-course (rat MR [1]; after 48 h): remained sustained
- Lipocalin2/NGAL expression, dose-response (rat MR [1]; increasing concentrations of aldosterone): stimulated by increasing concentrations
- expression of serpina3 (in words) (rat MR [2]; H9C2/MR cells, 1 nM aldosterone for 24 h): increased
- Serpina3 expression (in words) (rat MR [2]; H9C2/MR cells, 10 nM aldosterone, 24 h exposure): highly induced
- serpina3 induction, time course (rat MR [2]; H9C2/MR cells, after 10 hours): induced
- serpina3 induction, time course (rat MR [2]; H9C2/MR cells, after 24 h): 15 ×
- SERPINA3 mRNA induction (rat MR [2]; H9C2/MR+ cells, aldosterone 1 nM for 24 hrs): about 8 fold
- Lipocalin2/NGAL expression in the heart (MR [3]; 60 μg/kg/j infusion, quantitative PCR): increased
- plasma levels of lipocalin2/NGAL (MR [3]; ELISA): increased
Structure (SMILES): C[C@]12CCC(=O)C=C1CC[C@@H]1[C@@H]2[C@@H](O)C[C@]2(C=O)[C@@H](C(=O)CO)CC[C@@H]12 [aldosterone]
- Serpina3 induction, dose-response (rat MR [2]; H9C2/MR cells, aldosterone, starting with 1 nM): dose-dependent; also recorded: Concentration dependent induction

- Effect on plasma levels of lipocalin2/NGAL in control mice (MR [4]; control mice, 17 weeks treatment): no effect
- Effect on increase in plasma levels of lipocalin2/NGAL in db/db mice (MR [4]; db/db mice, 17 weeks in vivo treatment, 100 mg/Kg/day in drinking water): prevented
Structure (SMILES): C[C@]12CCC(=O)C=C1C=C[C@@H]1[C@@H]2CC[C@@]2(C)[C@H]1CC[C@@]2(O)CCC(=O)O [canrenoate]

Structure (SMILES): CCC[C@@H]1CC2=CC(=O)CC[C@]2(C)[C@H]2CC[C@@]3(C)[C@@H](CC[C@@]3(O)CCC(=O)[O-])[C@H]12.[K+] [RU 28318]
- Effect on aldosterone-induced increase of Lipocalin2/NGAL expression (rat MR [1]; antagonist (10^−6 M) added to 10^−8M aldosterone): prevented
- Effect on corticosterone-induced increase of Lipocalin2/NGAL expression (rat MR [1]; antagonist (10^−6 M) with 10^−8M corticosterone): prevented
- Effect on corticosterone induction of SERPINA3 mRNA (rat MR [2]; H9C2/MR+ cells, MR antagonist with 10 nM corticosterone): prevented
- Effect on aldosterone induction of SERPINA3 mRNA (rat MR [2]; H9C2/MR+ cells, in presence of MR antagonist with 1 nM aldosterone): suppressed

- Lipocalin2/NGAL expression (rat MR [1]; 10^−8M corticosterone): stimulated
- SERPINA3 mRNA expression (rat MR [2]; H9C2/MR cells, 10 nM corticosterone, 24 h): increased
Structure (SMILES): C[C@]12C[C@H](O)[C@H]3[C@@H](CCC4=CC(=O)CC[C@@]43C)[C@@H]1CC[C@@H]2C(=O)CO [corticosterone]
